From patent US7273886B2 (Genentech, Inc., priority 2003, dated 2007) come the findings set out here.

The term half-life denotes the time in which the quantity being followed falls by half. The term pKi denotes the Ki on a negative log10 scale, so that one unit is a factor of ten. Usually solubility stands for how much of the substance goes into solution per volume.

pKi: −log10 of the molar value. ≈ marks a conversion by molar mass, not a printed value.

Data set [1] in a line: Plasma concentrations following IV bolus administration in rhesus monkey. It is filed as in vivo. The note with it: IV bolus 1 mg/kg. On the procedure:
Dosing of Benzofuran Compounds in Rhesus Monkeys
IV Bolus: Inhibitors were formulated in a 1 mg/ml solution of 20–30% PEG 400/sterile water. The drug was administered as an IV bolus over 1 minute at 1 mg/kg. 1.0 ml blood samples were collected at each time point on 20 μl 8.5% K2EDTA. Blood samples for the IV dosed animals were be collected from a short, large bore catheter (needle <25G) placed in the saphenous or cephalic vein for all time points up to 3 hours after dosing. The catheters were then removed, the animals returned to their cages and latter samples collected by venipuncture. Venipuncture samples can be obtained from any superficial vein that can easily be compressed (e.g. cephalic, or saphenous but not from the femoral plexus). Sample time points were taken generally at the following times: pre-dose, 2, 5, 10, 20, 30, 40, 60, 90, 120, 150, 180 minutes and at 4, 6, 12, 24, and 48 hours.

Another data set addresses T1, TFVIIa (Homo sapiens, UniProt P08709).
T1 construct: recombinant human factor VIIa; NB #25942–16
Kind of data set: Tissue Factor/Factor VIIa antagonist assay (Ki). It is filed as biochemical. On the procedure:
Tissue Factor/Factor VIIa Antagonist Assay
This procedure can be used to determine the constant of inhibition (Ki) for a sample compound of the invention.
• Assay Buffer: 100 mM Hepes pH 7.8, 140 mM NaCl, 0.1% PEG-8000, 0.02% Tween-80, 5 mM CaCl2 Coagulation • Factor: recombinant human factor VIIa (NB #25942–16) • Cofactor: soluble Tissue Factor (1-219) • Substrate: Chromozym-tPA (Boehringer Mannheim, Cat. #1093 037) Reconstitute at 20 mM in H2O. Dilute to 4 mM in assay buffer with CaCl2 prior to use. • Samples: Dilute samples to 3% DMSO in assay buffer (lacking CaCl2). Procedure: • 1. Prepare a solution of 2 μg/mL (90 nM) tissue factor and 1.5 μg/mL (30 nM) factor VIIa in assay buffer with CaCl2. • 2. Incubate for 15 minutes at room temperature. • 3. Add 50 μL sample to each well. • 4. Add 50 μL tissue factor/factor VIIa solution to each well. • 5. Incubate for 15 minutes at room temperature with gentle agitation. • 6. Add 50 μL substrate to each well. • 7. Agitate plate for 20–25 sec. • 8. Monitor absorbance at 405 nm every 10 sec for a total of 5 minutes at room temperature. • 9. Calculate Vmax over 10 points.

Another data set addresses T2, F. Xa (Homo sapiens, UniProt P00742).
T2 construct: This complex converts factor X to Xa; purchased Hematologic Technologies
Kind of data set: Factor Xa assay (Ki). It is filed as biochemical. On the procedure: (§1) Factor Xa, Thrombin, and Plasma Kallikrein Assays
(§2) These procedures can be used to determine the constant of inhibition (Ki) for a sample compound of the invention.
(§3) • Assay Buffer: 100 mM Hepes pH 7.8, 140 mM NaCl, 0.1% PEG-8000, 0.02% Tween-80 • Coagulation human Factor Xa, Thrombin, or Plasma Kallikrein (Hematologic Technologies) • Factor: Dilute to 0.45 μg/mL (9.8 nM) in assay buffer. • Substrate: S-2222, S2366 or S2302—(See below—Chromogenix Inc,) Reconstitute at 5 mM in H2O. Dilute to 1.5 mM in assay buffer prior to use. • Samples: Dilute samples to 3% DMSO in assay buffer. Procedure: • 1. Add 50 μL sample to each well. • 2. Add 50 μL appropriately diluted coagulation factor to each well. • 3. Incubate for 5 minutes at room temperature with gentle agitation. • 4. Add 50 μL appropriately diluted substrate to each well. • 5. Agitate plate for 20–25 sec. • 6. Monitor absorbance at 405 nm every 10 sec for a total of 5 minutes at room temperature. • 7. Calculate Vmax over 10 points. Assay—Enzyme, Substrate and Final Concentrations

Another data set concerns the target T3, Thrombin (Homo sapiens, UniProt P00734).
T3 construct: rapidly converts prothrombin to thrombin; purchased Hematologic Technologies
Kind of data set: Thrombin assay (Ki). It is filed as biochemical. On the procedure:
as §1, §2, §3

The next data set addresses Trypsin. Kind of data set: Trypsin inhibition (Ki). It is filed as biochemical.
The target in a further data set is Plasmin (Homo sapiens, UniProt P00747). Nature of the data set: Plasmin inhibition (Ki). It is filed as biochemical.
Data set [2] has as its target APC (Homo sapiens, UniProt P04070). Kind of data set: APC inhibition (Ki). It is filed as biochemical. The note with it: APC.
The test system of data set [3] is APC. Nature of the data set: APC inhibition (Ki). It is filed as biochemical. To be noted: APC relative to TFVIIa.
A further data set has as its target T4, Plasma Kallikrein (Homo sapiens, UniProt P03952).
T4 construct: human Factor Xa, Thrombin, or Plasma Kallikrein (Hematologic Technologies); purchased Hematologic Technologies
Nature of the data set: Plasma Kallikrein assay (Ki). It is filed as biochemical. On the procedure: as §1, §2, §3

For another data set, the target named is Acetylcholinesterase (Homo sapiens, UniProt P22303). Kind of data set: Acetylcholinesterase inhibition (Ki). It is filed as biochemical.
A further data set has as its target T5, Complement CS1 (Homo sapiens, UniProt P09871).
T5 sequence (P09871 16-688): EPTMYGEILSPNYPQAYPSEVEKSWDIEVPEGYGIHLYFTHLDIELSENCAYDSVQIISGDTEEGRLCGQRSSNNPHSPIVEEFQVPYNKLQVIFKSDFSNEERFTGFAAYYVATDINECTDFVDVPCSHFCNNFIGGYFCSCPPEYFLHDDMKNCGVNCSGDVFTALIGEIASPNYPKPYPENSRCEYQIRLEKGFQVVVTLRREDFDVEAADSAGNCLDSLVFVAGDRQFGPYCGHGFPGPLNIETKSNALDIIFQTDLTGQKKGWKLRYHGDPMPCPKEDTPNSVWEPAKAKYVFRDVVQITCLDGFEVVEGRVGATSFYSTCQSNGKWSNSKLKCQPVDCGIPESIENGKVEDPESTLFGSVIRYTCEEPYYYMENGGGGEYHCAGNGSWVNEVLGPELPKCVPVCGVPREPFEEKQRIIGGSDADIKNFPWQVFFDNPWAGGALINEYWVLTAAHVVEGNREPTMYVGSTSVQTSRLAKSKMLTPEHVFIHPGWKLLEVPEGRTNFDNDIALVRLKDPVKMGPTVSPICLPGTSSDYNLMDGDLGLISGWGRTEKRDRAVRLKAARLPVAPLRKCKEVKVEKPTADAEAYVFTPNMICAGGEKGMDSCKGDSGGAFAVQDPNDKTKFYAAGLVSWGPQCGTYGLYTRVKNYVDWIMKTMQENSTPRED
Kind of data set: Complement CS1 inhibition (Ki). It is filed as biochemical.

In data set [4] the target is XIA (Homo sapiens, UniProt P03951). Nature of the data set: XIA inhibition (Ki). To be noted: XIA. It is filed as biochemical.
Data set [5] has as its system XIA. Kind of data set: XIA inhibition (Ki). The note with it: XIA relative to TFVIIa. It is filed as biochemical.
A further data set deals with T6, XIIA (Homo sapiens, UniProt P00748).
T6 sequence (P00748 373-615 limits assumed): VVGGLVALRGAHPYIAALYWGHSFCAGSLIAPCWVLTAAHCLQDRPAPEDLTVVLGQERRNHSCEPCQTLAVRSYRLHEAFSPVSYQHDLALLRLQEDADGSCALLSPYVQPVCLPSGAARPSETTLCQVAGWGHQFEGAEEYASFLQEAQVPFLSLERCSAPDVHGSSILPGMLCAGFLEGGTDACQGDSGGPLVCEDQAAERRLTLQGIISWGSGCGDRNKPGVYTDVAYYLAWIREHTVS
Kind of data set: XIIA inhibition (Ki). It is filed as biochemical.

Another data set has as its target tPA (Homo sapiens, UniProt P00750). Nature of the data set: tPA inhibition (Ki). It is filed as biochemical.
The target of the next data set is Urokinase (Homo sapiens, UniProt P00749). Nature of the data set: Urokinase inhibition (Ki). It is filed as biochemical.
A further data set addresses Chymotrypsin. Nature of the data set: Chymotrypsin inhibition (Ki). It is filed as biochemical.
The next data set has as its target T7, HGFA (Homo sapiens, UniProt Q04756).
T7 sequence (Q04756 373-655): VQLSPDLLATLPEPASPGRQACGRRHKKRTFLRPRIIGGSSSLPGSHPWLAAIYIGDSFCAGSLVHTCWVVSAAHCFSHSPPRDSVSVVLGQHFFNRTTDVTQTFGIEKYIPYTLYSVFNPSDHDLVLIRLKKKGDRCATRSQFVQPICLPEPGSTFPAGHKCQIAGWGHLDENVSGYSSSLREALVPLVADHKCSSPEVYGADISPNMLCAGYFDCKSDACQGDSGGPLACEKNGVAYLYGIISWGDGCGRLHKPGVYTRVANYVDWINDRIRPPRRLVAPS
Kind of data set: HGFA inhibition (Ki). It is filed as biochemical.

A short description of a further data set: Solubility in water. The note with it: aqueous buffer, thermodynamic from solid, amorphous solid. It is filed as physicochemical.

T1 sequence (P08709 61-212 limits assumed): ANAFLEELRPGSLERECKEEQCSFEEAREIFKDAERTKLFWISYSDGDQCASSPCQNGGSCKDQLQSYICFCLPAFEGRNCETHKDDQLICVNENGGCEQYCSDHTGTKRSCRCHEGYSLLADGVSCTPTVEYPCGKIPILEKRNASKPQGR
T1 sequence (P08709 213-466 limits assumed): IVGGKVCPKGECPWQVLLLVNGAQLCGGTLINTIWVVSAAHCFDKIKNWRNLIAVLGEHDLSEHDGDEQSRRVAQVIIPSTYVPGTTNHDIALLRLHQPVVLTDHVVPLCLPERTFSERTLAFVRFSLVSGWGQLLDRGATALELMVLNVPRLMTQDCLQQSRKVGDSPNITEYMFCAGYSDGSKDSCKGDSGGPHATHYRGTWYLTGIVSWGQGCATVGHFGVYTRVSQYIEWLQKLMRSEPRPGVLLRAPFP
T1 sequence (P13726 33-251 partner limits assumed): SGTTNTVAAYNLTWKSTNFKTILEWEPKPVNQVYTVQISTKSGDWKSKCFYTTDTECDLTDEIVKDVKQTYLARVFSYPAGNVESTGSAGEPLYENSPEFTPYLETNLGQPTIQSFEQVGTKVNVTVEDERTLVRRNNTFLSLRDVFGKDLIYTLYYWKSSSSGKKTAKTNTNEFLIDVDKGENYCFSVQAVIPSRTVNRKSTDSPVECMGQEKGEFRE
T2 sequence (P00742 41-179 limits assumed): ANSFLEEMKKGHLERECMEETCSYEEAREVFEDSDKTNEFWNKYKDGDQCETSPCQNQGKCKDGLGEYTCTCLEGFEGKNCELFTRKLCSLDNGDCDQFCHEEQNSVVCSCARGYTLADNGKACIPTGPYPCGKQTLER
T2 sequence (P00742 235-488 limits assumed): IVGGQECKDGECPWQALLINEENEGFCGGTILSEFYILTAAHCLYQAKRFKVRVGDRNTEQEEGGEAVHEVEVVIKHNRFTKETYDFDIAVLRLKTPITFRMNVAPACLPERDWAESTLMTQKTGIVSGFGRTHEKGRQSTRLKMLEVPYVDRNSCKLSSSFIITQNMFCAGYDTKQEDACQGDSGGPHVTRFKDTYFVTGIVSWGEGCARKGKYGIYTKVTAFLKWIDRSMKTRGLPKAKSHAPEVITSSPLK
T4 sequence (P03952 20-390 limits assumed): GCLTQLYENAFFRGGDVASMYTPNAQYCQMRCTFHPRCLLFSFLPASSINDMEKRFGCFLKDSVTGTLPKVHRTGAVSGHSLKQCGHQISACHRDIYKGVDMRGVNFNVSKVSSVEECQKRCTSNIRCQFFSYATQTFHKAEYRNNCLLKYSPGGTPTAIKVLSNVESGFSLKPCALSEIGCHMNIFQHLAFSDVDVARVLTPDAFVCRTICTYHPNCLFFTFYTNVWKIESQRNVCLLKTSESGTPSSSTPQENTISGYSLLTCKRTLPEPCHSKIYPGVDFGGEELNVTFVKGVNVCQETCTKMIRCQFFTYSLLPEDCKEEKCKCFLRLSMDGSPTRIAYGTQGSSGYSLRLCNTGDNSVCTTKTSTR
T4 sequence (P03952 391-638 limits assumed): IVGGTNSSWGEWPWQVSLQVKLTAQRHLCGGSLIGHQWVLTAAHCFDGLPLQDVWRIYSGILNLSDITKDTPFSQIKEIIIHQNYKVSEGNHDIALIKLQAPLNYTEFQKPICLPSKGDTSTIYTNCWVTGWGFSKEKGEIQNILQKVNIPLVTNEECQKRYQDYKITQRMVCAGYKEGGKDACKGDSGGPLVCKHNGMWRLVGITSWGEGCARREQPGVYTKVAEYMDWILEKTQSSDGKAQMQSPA
Chain of Plasmin (P00747 581-810 limits assumed, species assumed): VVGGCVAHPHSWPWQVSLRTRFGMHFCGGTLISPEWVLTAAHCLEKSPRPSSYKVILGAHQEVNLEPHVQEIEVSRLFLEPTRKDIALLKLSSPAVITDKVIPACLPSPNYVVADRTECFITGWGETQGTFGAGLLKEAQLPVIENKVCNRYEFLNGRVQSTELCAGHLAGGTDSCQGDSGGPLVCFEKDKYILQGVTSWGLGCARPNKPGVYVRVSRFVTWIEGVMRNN
Chain of Plasmin (P00747 97-580 limits assumed, species assumed): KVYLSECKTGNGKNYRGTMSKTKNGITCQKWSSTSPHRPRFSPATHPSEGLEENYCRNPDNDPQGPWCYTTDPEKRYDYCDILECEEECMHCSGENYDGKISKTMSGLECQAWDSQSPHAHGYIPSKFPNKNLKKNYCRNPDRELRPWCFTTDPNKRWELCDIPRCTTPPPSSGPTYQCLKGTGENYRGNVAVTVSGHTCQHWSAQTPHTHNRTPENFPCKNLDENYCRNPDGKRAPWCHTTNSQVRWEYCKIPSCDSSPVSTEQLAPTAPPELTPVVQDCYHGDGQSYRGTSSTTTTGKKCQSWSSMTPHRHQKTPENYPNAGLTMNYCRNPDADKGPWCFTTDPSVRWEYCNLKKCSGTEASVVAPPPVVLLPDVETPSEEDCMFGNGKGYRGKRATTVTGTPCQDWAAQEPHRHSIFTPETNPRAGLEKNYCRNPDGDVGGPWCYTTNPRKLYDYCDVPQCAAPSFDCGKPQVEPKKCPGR
Chain of Acetylcholinesterase (P22303 32-614, species assumed): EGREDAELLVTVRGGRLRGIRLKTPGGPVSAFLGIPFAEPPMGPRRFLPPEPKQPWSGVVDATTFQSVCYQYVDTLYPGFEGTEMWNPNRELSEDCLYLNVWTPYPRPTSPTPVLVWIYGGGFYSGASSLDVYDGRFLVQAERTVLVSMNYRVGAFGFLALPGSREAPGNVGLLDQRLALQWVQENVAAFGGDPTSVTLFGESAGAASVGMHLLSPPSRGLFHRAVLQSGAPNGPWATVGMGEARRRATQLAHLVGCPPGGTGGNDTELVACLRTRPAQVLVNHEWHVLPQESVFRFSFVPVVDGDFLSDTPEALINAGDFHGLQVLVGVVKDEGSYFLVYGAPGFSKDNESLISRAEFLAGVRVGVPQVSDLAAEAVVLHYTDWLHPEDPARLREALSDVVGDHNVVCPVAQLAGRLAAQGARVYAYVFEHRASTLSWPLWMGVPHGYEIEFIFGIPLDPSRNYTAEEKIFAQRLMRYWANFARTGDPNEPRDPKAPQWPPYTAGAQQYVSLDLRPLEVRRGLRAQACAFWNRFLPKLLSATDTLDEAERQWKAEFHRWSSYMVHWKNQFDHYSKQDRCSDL
Chain of tPA (P00750 36-562, species assumed): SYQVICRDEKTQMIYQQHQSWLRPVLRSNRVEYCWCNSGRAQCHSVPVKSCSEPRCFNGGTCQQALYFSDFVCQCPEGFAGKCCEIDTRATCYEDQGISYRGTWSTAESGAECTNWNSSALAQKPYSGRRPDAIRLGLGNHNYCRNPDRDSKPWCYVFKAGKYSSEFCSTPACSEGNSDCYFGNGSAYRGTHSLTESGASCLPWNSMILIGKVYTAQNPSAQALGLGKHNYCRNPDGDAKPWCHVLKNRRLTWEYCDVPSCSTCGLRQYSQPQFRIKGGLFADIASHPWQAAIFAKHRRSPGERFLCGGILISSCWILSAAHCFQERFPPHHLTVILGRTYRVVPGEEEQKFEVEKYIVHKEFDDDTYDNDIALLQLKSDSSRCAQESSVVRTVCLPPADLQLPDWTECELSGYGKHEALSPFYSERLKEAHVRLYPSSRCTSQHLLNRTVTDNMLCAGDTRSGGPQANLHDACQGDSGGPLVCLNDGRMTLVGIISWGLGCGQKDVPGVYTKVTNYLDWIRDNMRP
Chain of XIA (Homo sapiens, UniProt P03951) (P03951 388-625 limits assumed): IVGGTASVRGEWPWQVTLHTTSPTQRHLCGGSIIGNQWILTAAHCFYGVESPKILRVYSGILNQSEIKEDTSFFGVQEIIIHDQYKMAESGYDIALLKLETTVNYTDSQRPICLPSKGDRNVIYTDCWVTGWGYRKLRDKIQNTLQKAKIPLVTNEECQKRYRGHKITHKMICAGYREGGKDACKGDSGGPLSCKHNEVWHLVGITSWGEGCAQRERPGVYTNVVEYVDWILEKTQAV
Chain of APC (Homo sapiens, UniProt P04070) (P04070 212-461 limits assumed): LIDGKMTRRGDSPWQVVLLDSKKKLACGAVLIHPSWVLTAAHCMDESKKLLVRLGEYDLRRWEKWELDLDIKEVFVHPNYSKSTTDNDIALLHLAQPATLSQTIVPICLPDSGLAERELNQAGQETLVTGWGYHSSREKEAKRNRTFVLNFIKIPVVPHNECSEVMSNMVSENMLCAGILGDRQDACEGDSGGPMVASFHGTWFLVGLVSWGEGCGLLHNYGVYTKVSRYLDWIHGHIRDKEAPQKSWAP

In [1], `CCOc1cc(OCC)cc(C(Nc2ccc(C(=N)N)cc2)C(=O)NS(=O)(=O)CC)c1` (stereo not shown) showed a clearance of 8.6 mL/min/kg body weight. In data set [1] (plasma), the half-life was determined as 1.25 h.
Turning to `CCc1cc(C(Nc2ccc(C(=N)N)cc2)C(=O)NS(N)(=O)=O)cc2c(C)coc12` (stereo not shown) [Compound 8], the pKi at TFVIIa (TFVIIa) is 8.40; on F. Xa (F. Xa), below 5.15; at Thrombin (Thrombin), 6.08; at Trypsin (Trypsin) it was 5.68; at Plasmin (Plasmin), 6.06; on APC [2] it was 5.84. Further, the pKi at Plasma Kallikrein (Plasma Kallikrein) was 7.09; at Acetylcholinesterase it was below 5.17; at Complement CS1 (Complement CS1) it was below 5.19; on XIA [4] it was below 5.10; at XIIA (XIIA) it was below 5.06; on tPA (tPA) it was below 5.11. Moreover, the pKi at Urokinase (Urokinase) is below 5.17; at Chymotrypsin (Chymotrypsin), below 5.16; at HGFA (HGFA) it was 5.19. For the same molecule, the Selectivity on TFVIIa (TFVIIa (reference)) was 1 X; on F. Xa (F. Xa relative to TFVIIa), above 1750 X; on Thrombin (Thrombin relative to TFVIIa) it was 207 X; with Trypsin (Trypsin relative to TFVIIa), 525 X; on Plasmin (Plasmin relative to TFVIIa), 220 X; in the data set on APC [3], 360 X. Further, the Selectivity at Plasma Kallikrein (Plasma Kallikrein relative to TFVIIa) is reported as 20 X; at Acetylcholinesterase (Acetylcholinesterase relative to TFVIIa) it was 1700 X; at Complement CS1 (Complement CS1 relative to TFVIIa), above 1625 X; in the data set on XIA [5] it was above 2000 X; on XIIA (XIIA relative to TFVIIa), above 2175 X; on tPA (tPA relative to TFVIIa), above 1950 X. Besides, the figures for the Selectivity on Urokinase (Urokinase relative to TFVIIa), in the data set with Chymotrypsin (Chymotrypsin relative to TFVIIa) and at HGFA (HGFA relative to TFVIIa) were above 1700 X, above 1725 X and 1600 X, respectively.
Take `CCc1cc(C(Nc2ccc(/C(N)=N\OCc3ccc(OC)cc3)cc2)C(=O)NS(N)(=O)=O)cc2c(C)coc12` (stereo not shown) [Compound 26]: the solubility in the data set “Solubility in water” (pH 2) was 115 µM (≈ 65 µg/mL); in the data set “Solubility in water” (pH 6.5), 98 µM (≈ 55.4 µg/mL).
